The record followed here is patent US5631222A, “Endothelin-antagonizing peptide” (Kyowa Hakko Kogyo Co., Ltd., priority 1993, dated 1997).

The target in one experiment is T1, endothelin receptor (Bos taurus, UniProt P28088).
T1 construct: the suspension was used as a membrane fraction liquid; from tissue; host or cells: bovine cerebellum membrane fraction
T1 sequence (P28088 27-441): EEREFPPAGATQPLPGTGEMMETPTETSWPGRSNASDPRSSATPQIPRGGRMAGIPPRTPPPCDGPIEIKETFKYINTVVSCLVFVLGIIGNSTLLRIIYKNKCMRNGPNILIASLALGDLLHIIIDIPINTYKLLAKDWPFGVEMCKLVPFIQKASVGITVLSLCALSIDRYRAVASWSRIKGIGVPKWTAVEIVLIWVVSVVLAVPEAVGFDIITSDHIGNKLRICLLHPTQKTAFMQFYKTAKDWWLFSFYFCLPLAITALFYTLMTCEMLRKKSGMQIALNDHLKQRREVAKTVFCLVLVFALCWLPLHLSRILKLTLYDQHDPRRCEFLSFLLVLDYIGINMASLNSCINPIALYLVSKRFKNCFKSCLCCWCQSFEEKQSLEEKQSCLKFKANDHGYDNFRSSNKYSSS
Briefly: Endothelin receptor-antagonizing activity: inhibition of 125I-endothelin-1 binding to bovine cerebellum membrane fraction. Particulars: 125I-Endothelin-1, bovine cerebellum membrane fraction, 25° C. for 2 hours; read-out: IC50: Concentration causing 50% inhibition of endothelin1 binding.

In experiment [1] the test system is ET-1 contraction of rat thoracic aorta ring. Briefly: Inhibitory effect on ET-1 contraction (ring specimen of extracted rat thoracic aorta). Particulars: compound 10^-7 M, ET-1 3×10^-9 M, Sprague-Dawley rat thoracic aorta ring, tension relative to norepinephrine maximum. Here is the method:
Test Example 2: Inhibitory Effect On ET-1 Contraction (ring specimen of extracted rat thoracic aorta)
Male Sprague-Dawley rats (Slc. 450-550 g) were anesthetized by intravenous injection of 50 mg/kg of sodium pentobarbital (Nembutal™, Dynabot), and the heads thereof were then incised to die by bleeding. The breasts of the rats were then incised to extract the thoracic aortas therefrom. After the connective tissue which adhered to the blood vessels were removed in a nutrient solution, the blood vessels were cut into rings (3-4 mm), and two metallic holders (one of which was fixed to a support rod) were passed through the blood vessel to prepare a specimen. One end of the holder was mounted on a tension transducer (TB-611T, produced by Nihon Koden) through silk yarn, and the specimen was suspended in a Magnus' tube containing a nutrient solution. Resting tension (1.5 g) was applied to the specimen, and the nutrient solution was replaced several times until the tension was stabilized. Norepinephrine [(±) hydrochloride, Sigma] (10-20 μM) was then added, and the tension generated by contraction of the specimen was measured to determine the maximum value of the tension. The tension generated was detected by the tension transducer, amplified by a pressure strain amplifier (AP-621G, produced by Nihon Koden) and then recorded by a pen recorder (TYPE3066, YOKOGAWA). After the specimen was washed several times to remove Norepinephrine, each of the compounds shown in Table 3 which was dissolved in distilled water was added to the nutrient solution so that the concentration thereof was 10^-7 M, or only distilled water was added thereto in the same volume. […] After the specimens were allowed to stand for 10 minutes, ET-1 was successively added to the nutrient solutions so that the concentration thereof was 3×10^-9 M, and the tension of each of the specimens was measured. The relative value to the maximum tension previously determined was calculated, and the inhibitory effect (% inhibition) on contraction due to ET-1 was determined according to the following equation. […]

Non-standard residues stand in square brackets, D forms with d. Residues, ends and D or L forms follow the SMILES beside them. 2Thi = N[C@@H](Cc1cccs1)C(=O)O; Cha = N[C@@H](CC1CCCCC1)C(=O)O

Consider H-GNWHGTAPDWVYFAHLSMIW-OH [Compound 21], for which the IC50 at endothelin receptor is 0.96 nM. Also, in experiment [1], the “% inhibition of contraction due to ET-1” value came to 40.4%.

For the compound `CC[C@H](C)[C@H](NC(=O)[C@H](CC1CCCCC1)NC(=O)[C@@H](NC(=O)[C@H](CC(C)C)NC(=O)[C@H](Cc1c[nH]cn1)NC(=O)[C@H](C)NC(=O)[C@H](Cc1ccccc1)NC(=O)[C@H](Cc1ccc(O)cc1)NC(=O)[C@@H](NC(=O)[C@H](Cc1c[nH]c2ccccc12)NC(=O)[C@H](CC(=O)O)NC(=O)[C@@H]1CCCN1C(=O)[C@H](C)NC(=O)[C@@H](NC(=O)CNC(=O)[C@H](Cc1c[nH]cn1)NC(=O)[C@H](Cc1c[nH]c2ccccc12)NC(=O)[C@H](CC(N)=O)NC(=O)CN)[C@@H](C)O)C(C)C)[C@@H](C)O)C(=O)N[C@@H](Cc1c[nH]c2ccccc12)C(=O)O` [Compound 14, HGlyAsnTrpHisGlyThrAlaProAspTrpValTyrPheAlaHisLeuThrChaIleTrpOH] (H-GNWHGTAPDWVYFAHLT[Cha]IW-OH), the IC50 at endothelin receptor came out at 12 nM. The “% inhibition of contraction due to ET-1” value in experiment [1] is 47.0%.

Consider `CC[C@H](C)[C@H](NC(=O)[C@H](Cc1cccs1)NC(=O)[C@@H](NC(=O)[C@H](CC(C)C)NC(=O)[C@H](Cc1c[nH]cn1)NC(=O)[C@H](C)NC(=O)[C@H](Cc1ccccc1)NC(=O)[C@H](Cc1ccc(O)cc1)NC(=O)[C@@H](NC(=O)[C@H](Cc1c[nH]c2ccccc12)NC(=O)[C@H](CC(=O)O)NC(=O)[C@@H]1CCCN1C(=O)[C@H](C)NC(=O)[C@@H](NC(=O)CNC(=O)[C@H](Cc1c[nH]cn1)NC(=O)[C@H](Cc1c[nH]c2ccccc12)NC(=O)[C@H](CC(N)=O)NC(=O)CN)[C@@H](C)O)C(C)C)[C@@H](C)O)C(=O)N[C@@H](Cc1c[nH]c2ccccc12)C(=O)O` [Compound 17, HGlyAsnTrpHisGlyThrAlaProAspTrpValTyrPheAlaHisLeuThrThiIleTrpOH] (H-GNWHGTAPDWVYFAHLT[2Thi]IW-OH), for which the IC50 at endothelin receptor is 0.12 nM. In addition, the “% inhibition of contraction due to ET-1” value in experiment [1] came out at 61.3%.
